The record followed here is publication PMC6099690, “TRPA1 Modulating C14 Polyacetylenes from the Iranian Endemic Plant Echinophora platyloba” (Molecules : A Journal of Synthetic Chemistry and Natural …, 2018).

Experiment [1] concerns the target T1, rat TRPA1 (Rattus norvegicus, UniProt Q6RI86).
T1 construct: expressed in transfected cells
The experiment can be described thus: Calcium influx (Fluo-4 fluorimetric) agonist assay in HEK293 cells transfected with rTRPA1. The following applies: for EC50: half-maximal increase in [Ca2+]i, read-out: Potency EC50; for Efficacy: maximum [Ca2+]i elevation as % of allylisothiocyanate (AITC) at 100 μM. The format is cell-based. As for the experimental part:
(§1) HEK-293 cells stably over-expressing recombinant rat TRPA1, TRPM8, TRPV2-4, TRPM8 or human TRPV1 were selected by Geneticin 600 μg mL^−1, grown on 100-mm diameter Petri dishes as monolayers in minimum essential medium supplemented with non-essential amino acids, 10% fetal bovine serum, and 2 mM glutamine, and maintained under 5% CO2 at 37 °C. Stable expression of each channel was checked by quantitative real time-PCR. The effect of the substances on intracellular Ca^2+ concentration [Ca^2+]i was determined using Fluo-4, a selective intracellular fluorescent probe for Ca^2+. Toward this aim, on the day of the experiment, cells over-expressing the TRP channels were loaded for 1 h in the dark at room temperature with the methyl ester Fluo4-AM (4 μM in DMSO containing 0.02% Pluronic F-127, Invitrogen, Carlsbad, CA, USA) in minimum essential medium without fetal bovine serum. After the loading, cells were washed twice in Tyrode’s buffer (145 mM NaCl, 2.5 mM KCl, 1.5 mM CaCl2, 1.2 mM MgCl2, 10 mM D-glucose, and 10 mM HEPES, pH 7.4), re-suspended in Tyrode’s buffer, and transferred (about 100,000 cells) to the quartz cuvette of the spectrofluorimeter (Perkin-Elmer LS50B; PerkinElmer Life and Analytical Sciences, Waltham, MA, USA) under continuous stirring. [Ca^2+]i was determined before and after the addition of various concentrations of test compounds by measuring cell fluorescence at 25 °C (λEX = 488 nm, λEM = 516 nm). Curve fitting (sigmoidal dose-response variable slope) and parameter estimation were performed with GraphPad Prism® (GraphPad Software Inc., San Diego, CA, USA). Potency was expressed as the concentration of test substances exerting a half-maximal agonist effect (i.e., half-maximal increases in [Ca^2+]i (EC50), calculated by using GraphPad®. The efficacy of the agonists was first determined by normalizing their effect to the maximum Ca^2+ influx effect on [Ca^2+]i observed with application of 4 μM ionomycin (Sigma, St. Louis, MO, USA). The increases in fluorescence in wild-type HEK293 cells (i.e., not transfected with any construct) were used as baseline and subtracted from the values obtained from transfected cells. The effects of TRPA1 agonists are expressed as a percentage of the effect obtained with 100 μM allyl isothiocyanate (AITC). Antagonist/desensitizing behavior was evaluated for TRPA1 by adding the test compounds in the quartz cuvette 5 min before stimulation of cells with the agonist AITC (100 μM). Data are expressed as the concentration exerting a half maximal inhibition of agonist-induced [Ca^2+]i elevation (IC50), which was calculated again using GraphPad Prism® software. The effect on [Ca^2+]i exerted by agonist alone was taken as 100%. Dose-response curves were fitted by a sigmoidal regression with variable slope. All determinations were at least performed in triplicate. Statistical analysis of the data was performed by analysis of variance at each point using ANOVA followed by Bonferroni’s test.

The target in experiment [2] is T1, rat TRPA1. The experiment can be described thus: Antagonist/desensitizing assay: inhibition of AITC (100 μM)-induced [Ca2+]i elevation in rTRPA1-HEK293 cells. The following applies: compound added 5 min before stimulation with AITC 100 μM; HEK293 cells transfected with rTRPA1; read-out: IC50 inh TRPA1 (AITC 100 μM). The format is cell-based. As to the method:
as §1, with “Potency was expressed as the concentration of test substances exerting a half-maximal agonist effect (i.e., half-maximal increases in [Ca^2+]i (EC50), calculated by using GraphPad®. The efficacy of the agonists was first determined by normalizing their effect to the maximum Ca^2+ influx effect on [Ca^2+]i observed with application of 4 μM ionomycin (Sigma, St. Louis, MO, USA). The increases in fluorescence in wild-type HEK293 cells (i.e., not transfected with any construct) were used as baseline and subtracted from the values obtained from transfected cells. The effects of TRPA1 agonists are expressed as a percentage of the effect obtained with 100 μM allyl isothiocyanate (AITC).” left out, “The effect on [Ca^2+]i exerted by agonist alone was taken as 100%. Dose-response curves were fitted by a sigmoidal regression with variable slope. All determinations were at least performed in triplicate. Statistical analysis of the data was performed by analysis of variance at each point using ANOVA followed by Bonferroni’s test.” left out

T1 sequence (Q6RI86 whole entry): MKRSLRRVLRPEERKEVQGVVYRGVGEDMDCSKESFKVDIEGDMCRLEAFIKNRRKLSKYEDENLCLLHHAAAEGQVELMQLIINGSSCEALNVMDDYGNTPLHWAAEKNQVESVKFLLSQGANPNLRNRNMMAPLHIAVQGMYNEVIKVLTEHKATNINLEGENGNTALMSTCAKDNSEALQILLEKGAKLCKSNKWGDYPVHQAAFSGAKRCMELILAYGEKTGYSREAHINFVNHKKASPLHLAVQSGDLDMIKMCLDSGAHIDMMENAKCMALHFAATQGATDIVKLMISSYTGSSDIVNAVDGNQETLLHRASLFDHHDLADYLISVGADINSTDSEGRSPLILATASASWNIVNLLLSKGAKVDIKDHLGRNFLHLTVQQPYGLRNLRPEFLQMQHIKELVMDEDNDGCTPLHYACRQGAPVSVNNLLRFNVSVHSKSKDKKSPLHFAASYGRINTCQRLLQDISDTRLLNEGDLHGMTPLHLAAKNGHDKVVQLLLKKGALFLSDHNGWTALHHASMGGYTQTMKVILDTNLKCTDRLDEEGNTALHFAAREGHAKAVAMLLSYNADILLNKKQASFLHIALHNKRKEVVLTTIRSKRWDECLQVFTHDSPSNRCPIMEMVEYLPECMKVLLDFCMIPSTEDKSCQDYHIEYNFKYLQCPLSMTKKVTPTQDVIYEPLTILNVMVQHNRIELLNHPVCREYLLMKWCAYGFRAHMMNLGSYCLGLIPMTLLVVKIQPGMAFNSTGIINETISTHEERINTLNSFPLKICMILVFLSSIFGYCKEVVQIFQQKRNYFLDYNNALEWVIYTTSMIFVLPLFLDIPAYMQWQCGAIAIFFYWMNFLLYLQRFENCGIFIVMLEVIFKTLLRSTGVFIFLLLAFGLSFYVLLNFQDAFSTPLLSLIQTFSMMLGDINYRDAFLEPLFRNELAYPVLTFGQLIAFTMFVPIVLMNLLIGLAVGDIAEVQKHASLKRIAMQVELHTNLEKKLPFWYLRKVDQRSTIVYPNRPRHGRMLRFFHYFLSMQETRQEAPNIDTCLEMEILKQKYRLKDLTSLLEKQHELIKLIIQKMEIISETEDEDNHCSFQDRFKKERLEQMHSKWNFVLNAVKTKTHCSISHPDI

One may read the EC50 as the midpoint of the concentration-response curve. One may read the IC50 as the concentration needed to halve the response being measured. Turning to `CC#CC#CC#CCCc1cccc(=O)o1` [Echinophorin D (3), echinophorin D], at rat TRPA1 [1], the EC50 amounted to 30.9 ± 2.8 µM and the Efficacy is reported as 51.7 ± 1.3 % AITC. For the same compound, on rat TRPA1 [1] (listed as 3), the Efficacy entry was “about 52 % AITC”. For the same compound, the concentration for half-maximal inhibition (IC50) on rat TRPA1 [2] stood at 87 ± 1.5 µM.
With `C/C=C\C#CC#CCCc1cccc(=O)o1` [Echinophorin B (4), echinophorin B], on rat TRPA1 [1], the EC50 came to 25 ± 3 µM and the Efficacy turned out to be 82.0 ± 2.8 % AITC. Also, the Efficacy result at rat TRPA1 [1] (listed as 4) is listed as “about 80 % AITC”. Also, the IC50 on rat TRPA1 [2] worked out at 37.2 ± 0.8 µM.
Regarding `CCCC#CC#CCCc1cccc(=O)o1` [Echinophorin A (5), echinophorin A], on rat TRPA1 [1], the 50% effective concentration (EC50) came to 20.3 ± 3.2 µM and the Efficacy was 81.0 ± 3.3 % AITC. For the same compound, the Efficacy entry at rat TRPA1 [1] (listed as 5) is recorded as “about 80 % AITC”. In addition, the half-maximal inhibitory concentration (IC50) at rat TRPA1 [2] came to 45.7 ± 3.5 µM.
